# Test results reported in US11613547B2 (priority 2019, dated 2023).
# Values joined by “and” are separate entries in the source; they are usually repeats but may differ in a detail not shown here. Equal entries are not always repeated. “Also recorded” adds a separate entry of the source.
# Experiments:
# C57BL/6J mice [1] = assay: Conditioned place preference and aversion; settings: MP1207 100 nmol icv, morphine 10 mg/kg IP, U50,488h 30 mg/kg IP
# hMOR [2] = target: T1, hMOR (Homo sapiens, UniProt P35372); assay: cell-based; type: cell-based
# T1 construct: expressed in transfected cells; host or cells: HEK 293T (ATCC CRL-11268), transient
# [3] = target: T2, mouse mu opioid receptor (mMOR) (Mus musculus, UniProt P42866); assay: cell-based; type: cell-based
# T2 construct: expressed in transfected cells; host or cells: HEK-293T, transient (PEI), with BRET sensor cDNAs
# C57/B6 mice = assay: Locomotor effect (CLAMS); settings: 30 or 100 nmol icv
# [4] = target: T2, mouse mu opioid receptor (mMOR); assay: cell-based; type: cell-based; remark: listed apart in the source
# [5] = target: T3, rat kappa opioid receptor (rKOR) (Rattus norvegicus, UniProt P34975); assay: BRET assay, G-protein activation, rKOR; type: cell-based
# T3 construct: expressed in transfected cells; host or cells: HEK-293T, transient (PEI), with BRET sensor cDNAs
# Y312W-hKOR [6] = target: T4, Y312W-hKOR (Homo sapiens, UniProt P41145, Y312W); assay: cAMP inhibition assay, Y312W-hKOR mutant; type: cell-based; design: expressed in transfected cells; host or cells: HEK 293T (inferred from the general cAMP method)
# hKOR [7] = target: T5, hKOR (Homo sapiens, UniProt P41145); assay: Tango β-arrestin recruitment assay, hKOR; type: cell-based
# T5 construct: expressed in transfected cells; host or cells: HEK 293T (ATCC CRL-11268), transient
# mKOR = target: T6, mKOR (Mus musculus, UniProt P33534); assay: [35S]GTPγS functional assay, mKOR; type: biochemical
# T6 construct: expressed in transfected cells
# Y312W-hKOR [8] = target: T4, Y312W-hKOR; assay: Tango-arrestin recruitment assay, Y312W-hKOR mutant; type: cell-based; design: expressed in transfected cells; settings: Tango, compared with wild-type KOR
# hKOR [9] = target: T5, hKOR; assay: cAMP inhibition assay (GloSensor, HEK 293T), hKOR; type: cell-based
# C57BL/6J mice [10] = assay: 55° C. warm-water tail-withdrawal assay; type: in vivo, mouse; settings: icv, 55° C. tail withdrawal
# Procedure: (§1) Tail-withdrawal assay The 55° C. warm-water tail-withdrawal assay was conducted in mice as a measure of acute thermal antinociception as described previously (Reilley et al., 2010). Briefly, each mouse was tested for baseline tail-withdrawal latency prior to drug administration. Following drug administration, the latency for each mouse to withdraw the tail was measured every 10 minutes until latency returned to the baseline value. A maximum response time of 15 seconds was utilized to prevent tissue damage. […] Data are reported as percent antinociception, calculated by the equation: % antinociception=100×[(test latency−baseline latency)/(15−baseline latency)]. This was utilized to account for innate variability between mice. Compounds were administered either, […] (IP) or intracerebroventricular (icv) and the analgesic action of compounds was assessed at the peak effect as described previously (Haley and McCormick, 1957). In brief, mice were anesthetized using isoflurane. A small incision was made, and the drug (2 μl/mouse) was injected (using a 10 μL Hamilton syringe fitted to a 27-gauge needle) into the right lateral ventricle at the following coordinates: 2 mm caudal to bregma, 2 mm lateral to sagittal suture, and 2 mm in depth. Mice were tested for analgesia at the peak effect post injection.
# [11] = target: T3, rat kappa opioid receptor (rKOR); assay: BRET assay, arrestin recruitment, rKOR; type: cell-based; settings: BRET
# [12] = tested on: MOR KO, KOR KO, DOR KO mice; assay: Tail-withdrawal antinociception in opioid receptor knock out mice; type: in vivo, mouse; settings: 30 nmol icv, relative to WT
# Procedure: as §1
# mDOR [13] = target: T7, mDOR (Mus musculus, UniProt P32300); assay: [35S]GTPγS functional assay, mDOR; type: biochemical
# T7 construct: expressed in transfected cells
# [14] = target: T8, mouse delta opioid receptor (mDOR) (Mus musculus, UniProt P32300); assay: BRET assay, G-protein activation, mDOR; type: cell-based
# T8 construct: expressed in transfected cells; host or cells: HEK-293T, transient (PEI), with BRET sensor cDNAs
# hDOR [15] = target: T9, hDOR (Homo sapiens, UniProt P41143); assay: Tango β-arrestin recruitment assay, hDOR; type: cell-based; design: expressed in transfected cells; host or cells: HTLA cells expressing TEV fused-beta-Arrestin2
# 330 non-olfactory GPCRs = assay: PRESTO-Tango GPCRome β-arrestin recruitment screen; type: cell-based; settings: 3 μM
# Procedure: Assessment of off-target activity of MP1207 using PRESTO-Tango GPCR-ome To identify potential off-target activity of MP1207, the National Institutes of Mental Health Psychoactive Drug Screen Program were used. MP1207 was first tested for activity against 330 non-olfactory GPCRs using the PRESTO-Tango GPCRome screening β-arrestin recruitment assay at 3 μM MP1207. The activity at each receptor was measured in quadruplicate.
# Screening of compounds was accomplished using previously described methods with several modifications (www.ncbi.nlm.nih.gov/pmc/articles/PMC4424118/). First, HTLA cells were plated in DMEM with 2% dialyzed FBS and 10 U/mL penicillin-streptomycin. Next, the cells were transfected using an in-plate PEI method (www.ncbi.nlm.nih.gov/pmc/articles/PMC4012321/). PRESTO-Tango receptor DNAs were resuspended in OptiMEM and hybridized with PEI prior to dilution and distribution into 384-well plates and subsequent addition to cells. After overnight incubation, drugs diluted in DMEM with 1% dialyzed FBS were added to cells without replacement of the medium. The remaining steps of the PRESTO-Tango protocol were followed as previously described.
# hDOR [16] = target: T9, hDOR; assay: cAMP inhibition assay, hDOR; type: cell-based; design: expressed in transfected cells
# C57 mice = assay: Respiratory rate (CLAMS)
# mDOR [17] = target: T7, mDOR; assay: Radioligand competition binding ([125I]IBNtxA), CHO membranes, mDOR
# hMOR [18] = target: T1, hMOR; assay: Tango β-arrestin recruitment assay, hMOR; type: cell-based; settings: Tango
# mMOR = target: T10, mMOR (Mus musculus, UniProt P42866); assay: [35S]GTPγS functional assay, mMOR; type: biochemical
# T10 construct: expressed in transfected cells
# T10 sequence (P42866 whole entry): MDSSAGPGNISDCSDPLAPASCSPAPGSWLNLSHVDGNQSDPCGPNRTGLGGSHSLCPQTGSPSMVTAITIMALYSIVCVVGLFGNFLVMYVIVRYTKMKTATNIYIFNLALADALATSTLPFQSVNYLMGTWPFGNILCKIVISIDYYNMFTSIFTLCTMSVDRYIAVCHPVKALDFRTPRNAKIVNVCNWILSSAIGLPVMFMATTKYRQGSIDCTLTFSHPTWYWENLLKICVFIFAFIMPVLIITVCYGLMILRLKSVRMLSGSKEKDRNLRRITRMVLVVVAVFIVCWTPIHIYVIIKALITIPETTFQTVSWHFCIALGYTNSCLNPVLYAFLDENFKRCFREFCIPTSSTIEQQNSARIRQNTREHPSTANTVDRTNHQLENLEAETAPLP
# T3 sequence (P34975 whole entry): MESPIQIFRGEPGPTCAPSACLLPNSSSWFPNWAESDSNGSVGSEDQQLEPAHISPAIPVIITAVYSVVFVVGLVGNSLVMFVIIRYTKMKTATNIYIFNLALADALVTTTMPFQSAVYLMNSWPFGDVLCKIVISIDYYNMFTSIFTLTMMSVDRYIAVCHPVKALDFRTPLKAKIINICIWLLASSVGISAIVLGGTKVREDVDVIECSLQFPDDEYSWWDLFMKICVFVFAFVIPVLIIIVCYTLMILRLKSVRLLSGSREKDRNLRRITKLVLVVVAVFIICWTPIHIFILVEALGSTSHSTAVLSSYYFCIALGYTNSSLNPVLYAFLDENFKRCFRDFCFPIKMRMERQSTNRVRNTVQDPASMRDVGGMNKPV
# T7 sequence (P32300 whole entry): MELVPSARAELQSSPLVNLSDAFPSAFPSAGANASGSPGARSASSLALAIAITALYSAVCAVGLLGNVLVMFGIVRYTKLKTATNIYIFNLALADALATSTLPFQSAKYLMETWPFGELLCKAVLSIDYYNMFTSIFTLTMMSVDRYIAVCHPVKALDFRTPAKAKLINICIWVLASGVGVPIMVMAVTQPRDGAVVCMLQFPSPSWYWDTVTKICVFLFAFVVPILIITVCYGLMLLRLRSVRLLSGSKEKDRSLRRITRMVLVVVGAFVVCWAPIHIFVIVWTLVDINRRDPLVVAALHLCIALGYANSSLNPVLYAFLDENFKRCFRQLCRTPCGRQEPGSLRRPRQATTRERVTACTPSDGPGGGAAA
# T4 sequence (P41145 whole entry Y312W): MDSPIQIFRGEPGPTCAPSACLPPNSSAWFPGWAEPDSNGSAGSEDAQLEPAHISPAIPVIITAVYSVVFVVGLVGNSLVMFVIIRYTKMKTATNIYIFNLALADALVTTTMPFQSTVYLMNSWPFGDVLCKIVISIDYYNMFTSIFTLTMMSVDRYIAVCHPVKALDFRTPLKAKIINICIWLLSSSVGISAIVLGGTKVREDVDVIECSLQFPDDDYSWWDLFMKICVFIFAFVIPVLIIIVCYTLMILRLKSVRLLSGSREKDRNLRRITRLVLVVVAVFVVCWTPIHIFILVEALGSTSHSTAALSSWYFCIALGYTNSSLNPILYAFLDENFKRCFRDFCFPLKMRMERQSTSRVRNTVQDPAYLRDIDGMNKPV
# T2 sequence (P42866 whole entry): as the sequence (P42866 whole entry) above
# T1 sequence (P35372 whole entry): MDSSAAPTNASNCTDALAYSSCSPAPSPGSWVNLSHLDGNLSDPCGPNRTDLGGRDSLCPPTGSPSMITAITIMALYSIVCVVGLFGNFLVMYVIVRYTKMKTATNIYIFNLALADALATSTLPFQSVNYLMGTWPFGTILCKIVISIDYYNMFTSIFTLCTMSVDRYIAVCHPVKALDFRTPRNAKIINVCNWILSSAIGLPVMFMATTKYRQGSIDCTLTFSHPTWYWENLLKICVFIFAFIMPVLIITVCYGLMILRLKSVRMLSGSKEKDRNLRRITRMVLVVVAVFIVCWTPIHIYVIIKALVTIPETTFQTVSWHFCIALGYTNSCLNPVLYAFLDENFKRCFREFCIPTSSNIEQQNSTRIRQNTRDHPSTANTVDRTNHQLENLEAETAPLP
# T5 sequence (P41145 whole entry): as the sequence (P41145 whole entry Y312W) above, with W312Y counted along it
# T9 sequence (P41143 whole entry, the tested form may be a part): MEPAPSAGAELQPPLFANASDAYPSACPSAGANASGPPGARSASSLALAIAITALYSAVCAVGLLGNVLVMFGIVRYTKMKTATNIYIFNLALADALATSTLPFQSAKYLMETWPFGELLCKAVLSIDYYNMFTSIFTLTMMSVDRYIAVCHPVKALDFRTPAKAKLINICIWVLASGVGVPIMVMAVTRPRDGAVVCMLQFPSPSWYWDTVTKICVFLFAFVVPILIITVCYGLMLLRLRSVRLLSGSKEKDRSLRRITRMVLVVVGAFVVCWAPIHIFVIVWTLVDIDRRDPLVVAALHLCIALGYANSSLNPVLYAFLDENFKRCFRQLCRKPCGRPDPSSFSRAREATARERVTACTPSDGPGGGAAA
# T8 sequence (P32300 whole entry): as the sequence (P32300 whole entry) above
# T6 sequence (P33534 whole entry): as the sequence (P34975 whole entry) above, with E11D, A17S, P51S, V308A counted along it
compound,measurement,setting,value
"NCc1cccc(C(=O)NC2CCC3C4Cc5ccc(O)c6c5C3(CCN4CC3CC3)C2O6)c1 [MP1207, 3-(Aminomethyl)-N-((7R,726S)-3-(cyclopropylmethyl)-9-hydroxy-2,3,4,4a,5,6,7,7a-octahydro-1H-4,12-methanobenzofuro[3,2-e]isoquinolin-7-yl)benzamide]",conditioned place preference or aversion (CPP/CPA),C57BL/6J mice [1],"failed to show either rewarding or aversive behavior; also recorded: did not display GPP seen with morphine or CPA behavior seen with U50, 488h"
same,EC50,hMOR [2],0.0339 nM
same,Emax,"hMOR [2]; HEK-293T, read-out: Gi Emax hMOR",33 ± 1.4%
same,EC50,[3],3.61 nM
same,Emax,[3]; read-out: Gi Emax mMOR,42 ± 2.6%
same,locomotor effect,C57/B6 mice,stimulated locomotor activity; also recorded: increase in the forward locomotory effect
same,arrestin recruitment at mMOR,[4],no recruitment of βarrestin-2; also recorded: no arrestin recruitment was observed
same,EC50,"[5]; BRET, read-out: Gi EC50 rKOR",1.13 nM
same,Emax,[5]; read-out: Gi Emax rKOR,32 ± 2.3%
same,EC50,"Y312W-hKOR [6]; cAMP inhibition, read-out: Gi EC50 Y312W-hKOR",0.16 nM
same,Emax,Y312W-hKOR [6]; read-out: Gi Emax Y312W-hKOR,95 ± 1.8%
same,Emax,hKOR [7],37 ± 2%
same,EC50,"hKOR [7]; Tango, WT-hKOR",3.97 nM
same,Emax,mKOR,39.3 ± 1.3%
same,arrestin recruitment at Y312W-hKOR,Y312W-hKOR [8],further reduction of arrestin recruitment; also recorded: reduced arrestin measurement
same,Emax,"hKOR [9]; HEK-293T, read-out: Gi Emax hKOR",90 ± 1.7%
same,"Bias factor toward G protein, hKOR","hKOR [9]; cAMP inhibition vs Tango, against U50,488H as control",8
same,antinociceptive ED50 (95% CI),C57BL/6J mice [10],6.1 (4.1-8.9) nmol and 6.1 nmol
same,arrestin recruitment at rKOR,[11],no recruitment of βarrestin-2; also recorded: no arrestin recruitment was observed
same,antinociception in DOR KO mice,[12],remained intact
same,antinociception in KOR KO mice,[12],significantly attenuated
same,antinociception in MOR KO mice,[12],significantly attenuated
same,Emax,mDOR [13],10 to 15%
same,efficacy at mDOR,mDOR [13]; [35S]GTPγS,only weak efficacy
same,EC50,"[14]; mDOR, BRET",116 nM
same,Emax,[14]; read-out: G-Protein activation Emax % ± SEM,52 ± 2.3%
same,EC50,"hDOR [15]; hDOR, Tango",64.1 nM
same,Emax,hDOR [15]; read-out: Arrestin recruitment Emax % ± SEM,34 ± 3.7%
same,selectivity for opioid receptors in GPCRome screen,330 non-olfactory GPCRs; agonism in arrestin recruitment TANGO assay,reasonable selectivity for opioid receptors over 330 GPCRs; also recorded: selectivity for opioid receptors over non-opioid targets
same,increase in signal over basal at opioid receptors,"330 non-olfactory GPCRs; predominantly at KOR and DOR, much less at MOR",2 fold over basal
same,EC50,hDOR [16]; hDOR,11.4 nM
same,Emax,hDOR [16]; read-out: cAMP inhibition Emax % ± SEM,38 ± 2%
same,respiratory rate,C57 mice; 30 nmol icv,stimulated respiration; also recorded: an increase in the respiratory rate
same,respiratory rate,C57 mice; 100 nmol icv,still stimulated respiration; also recorded: slight right shift of effect
same,selectivity of MOR and KOR over DOR in the binding assays,mDOR [17],> 40 fold
same,arrestin recruitment at hMOR,hMOR [18],no recruitment of arrestin was seen; also recorded: no arrestin recruitment was observed
same,Emax,mMOR,41 ± 1%
